According to patent US20170105953A1, “METHOD FOR SUPPRESSING DIABETES AND/OR HEPATIC LIPIDS USING TORMENTIC ACID” (priority 2015, published 2017):
“Also recorded” adds a separate entry of the source.

What was measured:
[1] = blood parameters in high-fat diet-fed mice; assay type: in vivo; settings: HF diet-fed C57BL/6J mice; for blood glucose / circulating TG (triglyceride) levels: week 12; for circulating TG (triglyceride) levels: vs HF group; for Blood profiles: FFA (plasma free fatty acid) / Blood profiles: Insulin / Blood profiles: Leptin / Blood profiles: TC (total cholesterol): mean ± SE, n=9
Protocol: For part 2, C57BL/6J mice (4 weeks old) were obtained from the National Laboratory Animal Breeding and Research Center. The mice were divided randomly into two groups after 7 days acclimation. […] The compositions of the experimental diets are given in previous studies. After 8 weeks, the high-fat treated mice were randomly subdivided into four groups (n=9) including PTA1 (0.06 g/kg/day), PTA2 (0.12 g/kg/day) or rosiglitazone (Rosi; 1% methylcellulose, 10 mg/kg body weight) (GlaxoSmithKline) or vehicle and treated by oral gavage one time per day from the 9th to 12th weeks, while the mice were still on the high-fat diet, whereas the CON and high-fat control (HF) mice were treated with vehicle only. At the end, food was withheld from the animals (from 10 p.m. to 10 a.m.). The next day, the mice were sacrificed for blood and tissue collection and analysis. Livers, skeletal muscles, and white adipose tissues (WATs) (including epididymal, mesenteric, and retroperitoneal WAT) were weighed and excised, followed by immediate freezing, and kept at −80° C. for target gene analysis. Heparin (30 units/mL) (Sigma) was added to blood samples. Plasma samples were collected within 30 min by centrifugation at 1600 g for 15 min at 4° C. Plasma was obtained for insulin and leptin assay.
Blood samples (0.8 mL) were collected from the retro-orbital sinus of fasted mice, and the glucose level was analyzed by the glucose oxidase method (model 1500; Sidekick Glucose Analyzer; YSI Inc., Yellow Springs, Ohio, USA). Plasma triglycerides (TG), total cholesterol (TC), and free fatty acids (FFA) were measured using commercial assay kits according to the manufacturer's directions (Triglycerides-E test, Cholesterol-E test, and FFA-C test, Wako Pure Chemical, Osaka, Japan). The levels of insulin and leptin in blood were analyzed by ELISA using a commercial assay kit according to the manufacturer's directions (mouse insulin ELISA kit, Sibayagi, Gunma, Japan; and mouse leptin ELISA kit, Morinaga, Yokohama, Japan).

[2] = test system: AMPK; experiment: western blot, phospho-AMPK (Thr172)/total-AMPK in liver tissue and skeletal muscle; assay type: in vivo, C57BL/6J mice; settings: HF diet-fed mice
Source text: (§1) FIG. 4A is a western blot analysis showing the protein contents of GLUT4 in skeletal muscle, and phospho-AMPK (Thr172) and total-AMPK (Thr172) in both liver tissue and skeletal muscle, and phospho-Akt (Ser473) and total-Akt (Ser473) in skeletal muscle of the mice receiving tormentic acid (PTA) by oral gavage for 4 weeks; and
(§2) FIG. 4B is a diagram showing the protein contents of GLUT4 in skeletal muscle, the expression levels of phospho-AMPK (Thr172) to total AMPK in both liver tissue and skeletal muscle, and quantified results from FIG. 4A for the phosphorylation status of Akt (p-Akt normalized to total Akt (pAkt/Akt)) in skeletal muscle of the mice receiving tormentic acid (PTA) by oral gavage for 4 weeks.
For part 2, C57BL/6J mice (4 weeks old) were obtained from the National Laboratory Animal Breeding and Research Center. The mice were divided randomly into two groups after 7 days acclimation. The control (CON) group (n=9) was fed a low-fat diet (diet 12450B, Research Diets, Inc., New Brunswick, N.J., USA), whereas the experimental group was fed a 45% high-fat diet (diet 12451, Research Diets, Inc.) for 12 weeks. The compositions of the experimental diets are given in previous studies. After 8 weeks, the high-fat treated mice were randomly subdivided into four groups (n=9) including PTA1 (0.06 g/kg/day), PTA2 (0.12 g/kg/day) or rosiglitazone (Rosi; 1% methylcellulose, 10 mg/kg body weight) (GlaxoSmithKline) or vehicle and treated by oral gavage one time per day from the 9th to 12th weeks, while the mice were still on the high-fat diet, whereas the CON and high-fat control (HF) mice were treated with vehicle only. At the end, food was withheld from the animals (from 10 p.m. to 10 a.m.). The next day, the mice were sacrificed for blood and tissue collection and analysis. Livers, skeletal muscles, and white adipose tissues (WATs) (including epididymal, mesenteric, and retroperitoneal WAT) were weighed and excised, followed by immediate freezing, and kept at −80° C. for target gene analysis. Heparin (30 units/mL) (Sigma) was added to blood samples. Plasma samples were collected within 30 min by centrifugation at 1600 g for 15 min at 4° C. Plasma was obtained for insulin and leptin assay.

[3] = test system: GLUT4; experiment: western blot, GLUT4 protein in skeletal muscle; assay type: in vivo, C57BL/6J mice; settings: HF diet-fed mice
Source text: as §1, §2
(§3) For part 2, C57BL/6J mice (4 weeks old) were obtained from the National Laboratory Animal Breeding and Research Center. The mice were divided randomly into two groups after 7 days acclimation. The control (CON) group (n=9) was fed a low-fat diet (diet 12450B, Research Diets, Inc., New Brunswick, N.J., USA), whereas the experimental group was fed a 45% high-fat diet (diet 12451, Research Diets, Inc.) for 12 weeks. The compositions of the experimental diets are given in previous studies. […]

[4] = test system: Akt; experiment: western blot, phospho-Akt (Ser473)/total-Akt in skeletal muscle; assay type: in vivo, C57BL/6J mice; settings: HF diet-fed mice
Source text: as §1, §2, §3

[5] = PTA1 0.06 g/kg/day oral gavage 4 weeks
[6] = PTA2 0.12 g/kg/day oral gavage 4 weeks

## C[C@@H]1CC[C@]2(C(=O)O)CC[C@]3(C)C(=CC[C@@H]4[C@@]5(C)C[C@@H](O)[C@H](O)C(C)(C)[C@@H]5CC[C@]43C)[C@@H]2[C@]1(C)O [PTA, tormentic acid]
[1]; [5]
  blood glucose: 96.3 mg/dL
  circulating TG (triglyceride) levels: decreased
  Blood profiles: FFA (plasma free fatty acid): 2.15 ± 0.35 mequiv/L
  Blood profiles: Insulin: 101.7 ± 15.2 μU/mL
  Blood profiles: Leptin: 2.35 ± 0.092 ng/mL
  Blood profiles: TC (total cholesterol): 167.0 ± 6.1 mg/dL
[1]; [6]
  blood glucose: 94.8 mg/dL
  circulating TG (triglyceride) levels: decreased
  Blood profiles: FFA (plasma free fatty acid): 1.88 ± 0.29 mequiv/L
  Blood profiles: Insulin: 73.9 ± 11.8 μU/mL
  Blood profiles: Leptin: 1.78 ± 0.094 ng/mL
  Blood profiles: TC (total cholesterol): 153.7 ± 6.9 mg/dL
[2]; liver tissue, PTA1 0.06 g/kg/day 4 weeks
  expression levels of phospho-AMPK/total-AMPK: significantly increase
[2]; liver tissue, PTA2 0.12 g/kg/day 4 weeks
  expression levels of phospho-AMPK/total-AMPK: significantly increase
[2]; skeletal muscle, PTA1 0.06 g/kg/day 4 weeks
  expression levels of phospho-AMPK/total-AMPK: significantly increase
[2]; skeletal muscle, PTA2 0.12 g/kg/day 4 weeks
  expression levels of phospho-AMPK/total-AMPK: significantly increase
[3]; PTA1 0.06 g/kg/day 4 weeks
  membrane protein levels of GLUT4: significantly increased
[3]; PTA2 0.12 g/kg/day 4 weeks
  membrane protein levels of GLUT4: significantly increased; also recorded: marked increases
[4]; PTA1 0.06 g/kg/day 4 weeks
  expression levels of phospho-Akt/total-Akt: significantly increased
[4]; PTA2 0.12 g/kg/day 4 weeks
  expression levels of phospho-Akt/total-Akt: significantly increased
